In patent publication US20250125004A1, “SYSTEMS AND METHODS FOR POST-TRANSLATIONAL MODIFICATION-INSPIRED DRUG DESIGN AND SCREENING” (Ensem Therapeutics, Inc., priority 2021, published 2025):

Columns and labels:
[1] = biological target: c-Src (Src-k protein) (Homo sapiens, UniProt P12931); experiment: Protein thermal shift (PTS) assay; assay type: binding
Protocol: Human c-Src kinase domain (Src-k, including WT and C280S, 254-536) with a TEV protease cleavable N-terminal 6×-His tag was cloned into pET28a vector and co-expressed with full length YopH phosphatase cloned to pCDFDuet-1 vector in Escherichia coli BL21 (DE3) cells. Cells were cultured in LB medium at 37° C. and induced with 0.4 mM IPTG at 18° C. for 16 hours. Proteins were purified using HisTrap FF column (GE Healthcare) in buffer containing 50 mM Hepes pH=8.0, 500 mM NaCl, 5% glycerol and imidazole (25 mM for loading, 150 mM for elution). After TEV enzyme cleavage, proteins were loaded to Hitrap Q FF (GE Healthcare) in buffer containing 20 mM Hepes pH=8.0, 5% glycerol, 1 mM DTT (QA) and eluted with a linear gradient of 10-30% buffer QB (buffer QA plus 1M NaCl). Then proteins were further purified by Superdex75TM 10/300 GL column (GE Healthcare) and change the buffer to 20 mM Hepes pH=7.4, 150 mM NaCl, 1 mM DTT. Protein thermal shift (PTS) assays were performed on a QuantStudioTM 6 Flex Real-time PCR system (Applied Biosystems). […] Src-k protein, 5×SYPRO® orange (Molecular Probes) and different concentrations of compounds were mixed in 20 μL final buffer and added to 96-well plates (DN Biotech). According to the standard protocol, the reaction system was heated from 25° C. to 95° C. within 25 minutes, and the fluorescence signal was monitored in real time. Protein […] ShiftTM Software Version 1.2 (Life Technologies) was used to determine the Tm value and Graphpad Prism 8.0 was used to draw the curves. The Y419-phosphorylated protein used was obtained by incubating Src-k protein with 5 mM MgCl2 and 10 mM ATP overnight, and then desalting it into final buffer.

[2] = biological target: T1, c-Src (Homo sapiens, UniProt P12931); experiment: Intact protein mass by HPLC/MS, covalent binding; conditions: about 20 μM c-Src, 100 μM compound, 4° C., 8 hours; expected 316.34 Da for a single covalent adduct
T1 sequence (P12931 86-536): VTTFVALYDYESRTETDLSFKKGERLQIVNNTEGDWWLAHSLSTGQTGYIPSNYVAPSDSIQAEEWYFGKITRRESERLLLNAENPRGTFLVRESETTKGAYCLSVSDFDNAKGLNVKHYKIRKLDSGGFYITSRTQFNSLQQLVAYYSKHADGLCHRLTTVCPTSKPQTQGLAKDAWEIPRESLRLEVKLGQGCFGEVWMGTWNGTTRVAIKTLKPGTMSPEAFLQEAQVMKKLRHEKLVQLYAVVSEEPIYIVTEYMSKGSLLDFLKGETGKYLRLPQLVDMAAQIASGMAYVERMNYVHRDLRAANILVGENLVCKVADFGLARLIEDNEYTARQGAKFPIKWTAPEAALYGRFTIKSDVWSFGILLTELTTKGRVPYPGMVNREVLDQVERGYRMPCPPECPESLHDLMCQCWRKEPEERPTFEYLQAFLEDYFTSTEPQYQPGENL
Protocol: c-Src protein was diluted to approximately 20 μM in final buffer and incubated with compound at a final concentration of 100 μM or same volume of DMSO at 4° C. for 8 hours. Then, the protein samples were diluted into aqueous solution containing 0.1% formic acid (about 1 mg/mL), and 2 μg of the target protein samples were took for LC/MS analysis. Intact protein high-resolution mass spectrometry was performed using Ultimate 3000 LC liquid chromatograph and LTQ Orbitrap mass spectrometer equipped with HESI ion source (Thermo Fisher, CA). BioPharma Finder software (version 2.0, Thermal Fischer, California) was used to process the raw LC-MS data, and the […] deconvolution algorithm was used to obtain the intact protein masses.

[3] = biological target: T1, c-Src; experiment: Homogeneous time-resolved fluorescence (HTRF) assay, KinEASE-TK kit; assay type: biochemical; conditions: 120 min incubation, n=3 for DC-Srci-6668, read-out: IC50, inhibition of c-Src catalytic activity
Protocol: Based on this, covalent docking was performed against an in-house compound library, consisting of 720 compounds with reactive chemical groups. After score ranking and cluster analysis (FIG. 6B), 16 compounds were selected and purchased from ChemDiv (San Diego, CA, USA) for subsequent biochemical evaluations. Although IC50 values are time-dependent for covalent inhibitor and cannot be used to fully characterize the true binding affinity, they are also recognized as an indicator for preliminary evaluating the biological activity of covalent compounds. The homogeneous time resolved fluorescence (HTRF) assay was then conducted to determine the compound inhibitory activity, using the HTRF KinEASE-TK kit (Cisbio, Bedford, MA, USA). […] The cells were infected with baculovirus at 27° C. for 48-72 hours before collection. Cells were lysed in buffer containing 20 mM Hepes pH=7.4, 150 mM NaCl, 1 mM DTT, 1× protease inhibitor cocktail (Roche) and 1 mM PMSF. […] The ability of compounds to inhibit the phosphorylation of a peptide substrate by c-Src kinase was evaluated by homogeneous time-resolved fluorescence (HTRF) using KinEASE-TK kit (Cisbio, Bedford, MA, USA). […] Finally, fluorescence was measured at 615 nm and 665 nm using EnVision reader (PerkinElmer). The results were calculated as follows: ratio=OD665/OD615 and the IC50 values were analyzed in Graphpad Prism 8.0.

[4] = biological target: c-Src Y419 autophosphorylation (His-tag Src-k protein) (Homo sapiens, UniProt P12931); experiment: Amplified Luminescent Proximity Homogeneous Assay (ALPHA), auto-phosphorylation of c-Src Y419; assay type: biochemical; conditions: 90 min incubation, n=3, read-out: IC50, inhibition of autophosphorylation of c-Src Y419
c-Src Y419 autophosphorylation (His-tag Src-k protein), sequence (P12931 254-536): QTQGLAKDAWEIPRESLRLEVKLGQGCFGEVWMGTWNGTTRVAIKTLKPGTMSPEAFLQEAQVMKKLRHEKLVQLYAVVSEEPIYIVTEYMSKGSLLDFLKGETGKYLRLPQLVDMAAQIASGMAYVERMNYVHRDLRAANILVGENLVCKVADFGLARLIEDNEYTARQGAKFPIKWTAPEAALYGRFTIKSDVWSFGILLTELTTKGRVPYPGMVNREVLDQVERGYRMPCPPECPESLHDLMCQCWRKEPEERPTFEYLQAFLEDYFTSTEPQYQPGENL
Protocol: Human c-Src kinase domain (Src-k, including WT and C280S, 254-536) with a TEV protease cleavable N-terminal 6×-His tag was cloned into pET28a vector and co-expressed with full length YopH phosphatase cloned to pCDFDuet-1 vector in Escherichia coli BL21 (DE3) cells. Cells were cultured in LB medium at 37° C. and induced with 0.4 mM IPTG at 18° C. for 16 hours. Proteins were purified using HisTrap FF column (GE Healthcare) in buffer containing 50 mM Hepes pH=8.0, 500 mM NaCl, 5% glycerol and imidazole (25 mM for loading, 150 mM for elution). After TEV enzyme cleavage, proteins were loaded to Hitrap Q FF (GE Healthcare) in buffer containing 20 mM Hepes pH=8.0, 5% glycerol, 1 mM DTT (QA) and eluted with a linear gradient of 10-30% buffer QB (buffer QA plus 1M NaCl). Then proteins were further purified by Superdex75™ 10/300 GL column (GE Healthcare) and change the buffer to 20 mM Hepes pH=7.4, 150 mM NaCl, 1 mM DTT. The ability of compounds to inhibit the auto-phosphorylation of c-Src Y419 was determined by Amplified Luminescent Proximity Homogeneous Assay (ALPHA). ALPHA assay was carried out in assay buffer containing 20 mM Hepes, pH=7.4, 0.1% Triton X-100, 1 mM DTT, 0.1% bovine serum albumin (w/v)). […] Finally, the signals were measured in ALPHA protocol using EnVision reader and the IC50 values analyzed in Graphpad Prism 8.0.

c-Src (Src-k protein), sequence (P12931 254-536): as above

O=C(NC1CCCC1)C(c1ccc(F)cc1)N(C(=O)CCl)C1CC1 (stereo not drawn) [DC-Srci-6668]
positive Tm shift of c-Src ([1]; concentration ratio 1:5): 1.50 °C
positive Tm shift of c-Src ([1]; concentration ratio 1:10): 2.56 °C
positive Tm shift of c-Src ([1]; concentration ratio 1:20): 3.30 °C
increase of MW of c-Src after compound treatment [2]: 316.64 Da
IC50 [3]: 2.39 ± 0.164 µM
IC50 [4]: 3.88 ± 0.586 µM
